We go through 29 compounds from patent US11001564B2, “Substituted chromane-8-carboxamide compounds and analogues thereof, and methods using same” (priority 2016, dated 2021).

Structures are written as SMILES. pEC50: −log10 of the molar value. Counter-ions that a name gives are not always drawn.

The test system of the first experiment is HBV rcDNA in HepDE19 cells. The experiment is described as follows: HepDE19 assay with bDNA quantitation of HBV rcDNA. Type of experiment: cell-based, hepatitis B virus (HBV). As to conditions: HepDE19 cells, 7 day incubation, rcDNA by Quantigene 2.0 bDNA assay; read-out: DE-19 bDNA EC50. A digest of the protocol:
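HepG2-derived HepDE19 cells, switched to Tet-free medium, were exposed 7 days at 37 °C to compound (8-point ½-log series from 25 μM, 0.5% DMSO). HBV rcDNA measured by bDNA assay with HBV-specific probes; EC50/EC90 by 4-parameter fit. CC50 from CellTiter-Glo ATP on replicate plates after 4 days.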
For the compound `COC1CCOc2c(C(=O)Nc3ccc(F)c(F)c3)cccc21` (single isomer, unassigned) [Compound 6, N-(3,4-difluorophenyl)-4-methoxychromane-8-carboxamide], the pEC50 (commonly the EC50 on a negative log10 scale, so that one unit is a factor of ten) was 5.37.

Regarding `O=C(Nc1ccc(F)c(F)c1)c1cccc2c1OCCC2c1ccncc1` (single isomer, unassigned) [Compound 70, N-(3,4-Difluorophenyl)-4-(pyridin-4-yl)chromane-8-carboxamide], the negative-log EC50 (pEC50) is 4.64.

The same experiment, now with this note: Hepatitis B virus, HepDE19, 168 h, HepDE19 cells, 7 day incubation, rcDNA by Quantigene 2.0 bDNA assay; read-out: DE-19 bDNA EC50.
Turning to `COC(=O)N[C@H]1CCOc2c(C(=O)Nc3cc(F)cc(F)c3)cccc21` [Compound 46, Methyl (S)-(8-((3,5-difluorophenyl)carbamoyl)chroman-4-yl)carbamate], the pEC50 was 5.24.

With `O=C(Nc1ccc(F)c(F)c1)c1cccc2c1OCC[C@@H]2O` [Compound 5, (S)-N-(3,4-difluorophenyl)-4-hydroxychromane-8-carboxamide], the pEC50 was 5.41.

With `Cc1cc(NC(=O)c2ccc(F)c3c2OCC[C@@H]3NC(=O)OC[C@@H]2CC(=O)N2)ccc1F` [Compound 147, ((S)-4-Oxoazetidin-2-yl)methyl ((S)-5-fluoro-8-((4-fluoro-3-methylphenyl)carbamoyl)chroman-4-yl)carbamate], the pEC50 is 6.08.

In the case of `O=C(NC1CCNc2c(C(=O)Nc3ccc(F)c(F)c3)cccc21)OCc1ccccn1` (centres unmarked) [Compound 175, pyridin-2-ylmethyl (8-((3,4-difluorophenyl)carbamoyl)-1,2,3,4-tetrahydroquinolin-4-yl)carbamate], the negative logarithm of the EC50 (pEC50) was 4.92.

As to `CN1CCC(COC(=O)N[C@H]2CCOc3c(C(=O)Nc4ccc(F)c(F)c4)cccc32)C1` (stereo partly drawn) [Compound 127, (1-methylpyrrolidin-3-yl)methyl ((S)-8-((3,4-difluorophenyl)carbamoyl)chroman-4-yl)carbamate], the pEC50 is 4.62.

Take `O=C(N[C@H]1CCOc2c(C(=O)Nc3ccc(F)c(Cl)c3)ccc(F)c21)OCCc1ccccn1` [Compound 153, 2-(Pyridin-2-yl)ethyl (S)-(8-((3-chloro-4-fluorophenyl)carbamoyl)-5-fluorochroman-4-yl)carbamate]: the pEC50 is 6.28.

For the compound `NC(=O)NC1CCOc2c(C(=O)Nc3ccc(F)c(F)c3)cccc21` (centres unmarked) [Compound 34, N-(3,4-Difluorophenyl)-4-ureidochromane-8-carboxamide], the negative-log EC50 (pEC50) is 5.33.

For `O=C(Nc1ccc(F)c(F)c1)c1cccc2c1OCCC2c1ncccn1` (centres unmarked) [Compound 71, N-(3,4-difluorophenyl)-4-(pyrimidin-2-yl)chromane-8-carboxamide], the negative logarithm of the EC50 (pEC50) is 4.92.

For the compound `CCC(=O)N[C@H]1CCOc2c(C(=O)Nc3ccc(F)c(F)c3)cccc21` [Compound 10, N-(3,4-Difluorophenyl)-4-propionamidochromane-8-carboxamide], the pEC50 is 5.24.

With `O=C(N[C@H]1CCOc2c(C(=O)Nc3ccc(F)c(F)c3)cccc21)c1ccncc1` [Compound 16], the pEC50 was 4.89.

As for `O=C(N[C@H]1CCOc2c(C(=O)Nc3ccc(F)c(F)c3)cccc21)OCC1CCCNC1` (single isomer, unassigned) [Compound 87], the negative logarithm of the EC50 (pEC50) was 4.80.

On to `O=C1CCOc2c1c(F)cc(F)c2C(=O)Nc1ccc(F)c(F)c1` [Compound 110, N-(3,4-difluorophenyl)-5,7-difluoro-4-oxochromane-8-carboxamide], for which the pEC50 is 5.80.

For the compound `O=C(Nc1ccc(F)c(F)c1)c1ccc(F)c2c1OCC[C@@H]2Nc1ncccn1` [Compound 89, (S)—N-(3,4-Difluorophenyl)-5-fluoro-4-(pyrimidin-2-ylamino)chromane-8-carboxamide], the negative-log EC50 (pEC50) was 5.96.

On to `O=C(Nc1ccc(F)c(F)c1)c1cccc2c1OCCC2c1ccccc1` (centres unmarked) [Compound 62, N-(3,4-difluorophenyl)-4-phenylchromane-8-carboxamide], for which the negative logarithm of the EC50 (pEC50) was 5.31.

Take `Cc1ccnc(N[C@H]2CCOc3c(C(=O)Nc4ccc(F)c(F)c4)cccc32)n1` [Compound 57, (S)—N-(3,4-Difluorophenyl)-4-((4-methylpyrimidin-2-yl)amino)chromane-8-carboxamide]: the pEC50 is 5.47.

Turning to `O=C(N[C@H]1CCOc2c(C(=O)Nc3ccc(F)c(F)c3)cccc21)c1cncs1` [Compound 12, N-(8-((3,4-difluorophenyl)carbamoyl)chroman-4-yl)thiazole-5-carboxamide], the pEC50 was 5.08.

As for `O=C1CC[C@@H](COC(=O)N[C@H]2CCOc3c(C(=O)Nc4ccc(F)c(Cl)c4)ccc(F)c32)N1` [Compound 156, ((S)-5-Oxopyrrolidin-2-yl)methyl ((S)-8-((3-chloro-4-fluorophenyl)carbamoyl)-5-fluorochroman-4-yl)carbamate], the negative-log EC50 (pEC50) is 6.13.

As to `COC(=O)N[C@H]1CCOc2c(C(=O)Nc3cc(F)c(F)c(F)c3)cccc21` [Compound 45, Methyl (S)-(8-((3,4,5-trifluorophenyl)carbamoyl)chroman-4-yl)carbamate], the negative logarithm of the EC50 (pEC50) is 5.92.

On to `O=C(N[C@H]1CCOc2c(C(=O)Nc3ccc(F)c(Cl)c3)ccc(F)c21)OCC(=O)N1CCCC1` [Compound 160, 2-Oxo-2-(pyrrolidin-1-yl)ethyl (S)-(8-((3-chloro-4-fluorophenyl)carbamoyl)-5-fluorochroman-4-yl)carbamate], for which the pEC50 was 6.38.

Staying with this experiment, now noted: Hepatitis B virus, HepDE19, 168 h, read-out: DE-19 bDNA EC50, HepDE19 cells, 7 day incubation, rcDNA by Quantigene 2.0 bDNA assay.
Turning to `CC(=O)N1CCC(COC(=O)N[C@H]2CCOc3c(C(=O)Nc4ccc(F)c(F)c4)cccc32)C1` (single isomer, unassigned) [Compound 144], the pEC50 was 5.27.

Regarding `COC(=O)NC1CCN(C)c2c(C(=O)Nc3ccc(F)c(F)c3)cccc21` (single isomer, unassigned) [Compound 177, Methyl (8-((3,4-difluorophenyl)carbamoyl)-1-methyl-1,2,3,4-tetrahydroquinolin-4-yl)carbamate], the pEC50 was 5.64.

Regarding `COc1ccc(COC(=O)N[C@H]2CCOc3c(C(=O)Nc4ccc(F)c(F)c4)cccc32)nc1` [Compound 102, (5-Methoxypyridin-2-yl)methyl (S)-(8-((3,4-difluorophenyl)carbamoyl)chroman-4-yl)carbamate hydrochloride], the pEC50 was 5.60.

For the compound `COCCOC(=O)N[C@H]1CCOc2c(C(=O)Nc3ccc(F)c(F)c3)cccc21` [Compound 22, 2-Methoxyethyl (8-((3,4-difluorophenyl)carbamoyl)chroman-4-yl) carbamate], the pEC50 was 5.33.

As to `O=C(N[C@@H]1CCSc2c(C(=O)Nc3ccc(F)c(F)c3)ccc(F)c21)OCc1ccccn1` [Compound 170, Pyridin-2-ylmethyl (R)-(8-((3,4-difluorophenyl)carbamoyl)-5-fluorothiochroman-4-yl)carbamate hydrochloride], the negative logarithm of the EC50 (pEC50) was 4.68.

Take `COC(=O)N[C@H]1CCOc2c(C(=O)Nc3ccc(F)c(F)c3)cccc21` [Compound 8, methyl (S)-(8-((3,4-difluorophenyl)carbamoyl)chroman-4-yl)carbamate]: the pEC50 was 5.64.

For `COC(=O)N[C@H]1CCOc2c(C(=O)Nc3ccc(F)c(F)c3)ccc(F)c21` [Compound 38, methyl (S)-(8-((3,4-difluorophenyl)carbamoyl)-5-fluorochroman-4-yl)carbamate], the pEC50 was 6.24.

As to `COC(=O)N[C@H]1CCOc2c(C(=O)Nc3ccc(F)c(F)c3)c(F)cc(F)c21` [Compound 115, Methyl (S)-(8-((3,4-difluorophenyl)carbamoyl)-5,7-difluorochroman-4-yl)carbamate], the negative-log EC50 (pEC50) is 6.10.
